# Values of other authors in PubChem BioAssay AID1259409 (Chemical Carcinogenesis Research Information System (CCRIS), 2018).
# Tested on: rodent chemically induced tumor inhibition, incidence and multiplicity
# Test: CCRIS tumor inhibitor studies
structure (smiles),measurement,setting,value
C[C@H]1[C@H](C)CC[C@]2(C(=O)O)CC[C@]3(C)C(=CC[C@@H]4[C@@]5(C)CC[C@H](O)C(C)(C)[C@@H]5CC[C@]43C)[C@H]12,"tumour outcome (control, treated, inhibition, significance)","Carcinogen: 7,12-DIMETHYLBENZ[A]ANTHRACENE : 57-97-6, Dose [Inhibitor]: 0, 2 UMOL IN 200 µL ACETONE 2/WK FOR 20 WK BEGINNING 1 WK POST CARCINOGEN DOSE (STUDY DURATION: 20 WK), Route [Inhibitor]: DERMAL, Species: MOUSE, Strain/Sex: CD-1/FEMALE, Target Tissue: Type of Lesion: SKIN: TUMOR, Dose [Carcinogen]: 200 NMOL IN 200 µL ACETONE ONCE, Promoter: 12-O-TETRADECANOYLPHORBOL-13-ACETATE, 16561-29-8","93%, 62%, 33%, not significant"
same,"tumour outcome (control, treated, inhibition, significance)","Carcinogen: 7,12-DIMETHYLBENZ[A]ANTHRACENE, 57-97-6, Dose [Inhibitor]: 0, 0.1 UMOL IN 200 µL ACETONE 2/WK FOR 18 WK BEGINNING 1 WK POST CARCINOGEN DOSE (STUDY DURATION: 18 WK), Route [Inhibitor]: DERMAL, Species: MOUSE, Strain/Sex: CD-1/FEMALE, Target Tissue: Type of Lesion: SKIN: TUMOR, Dose [Carcinogen]: 200 NMOL IN 200 µL ACETONE ONCE, Promoter: 12-O-TETRADECANOYLPHORBOL-13-ACETATE, 16561-29-8","87%, 87%, 0%, not significant"
same,"tumour outcome (control, treated, inhibition, significance)","Carcinogen: 7,12-DIMETHYLBENZ[A]ANTHRACENE, 57-97-6, Dose [Inhibitor]: 0, 0.3 UMOL IN 200 µL ACETONE 2/WK FOR 18 WK BEGINNING 1 WK POST CARCINOGEN DOSE (STUDY DURATION: 18 WK), Route [Inhibitor]: DERMAL, Species: MOUSE, Strain/Sex: CD-1/FEMALE, Target Tissue: Type of Lesion: SKIN: TUMOR, Dose [Carcinogen]: 200 NMOL IN 200 µL ACETONE ONCE, Promoter: 12-O-TETRADECANOYLPHORBOL-13-ACETATE, 16561-29-8","87%, 93%, -7%, not significant"
same,"tumour outcome (control, treated, inhibition, significance)","Carcinogen: 7,12-DIMETHYLBENZ[A]ANTHRACENE, 57-97-6, Dose [Inhibitor]: 0, 1 UMOL IN 200 µL ACETONE 2/WK FOR 18 WK BEGINNING 1 WK POST CARCINOGEN DOSE (STUDY DURATION: 18 WK), Route [Inhibitor]: DERMAL, Species: MOUSE, Strain/Sex: CD-1/FEMALE, Target Tissue: Type of Lesion: SKIN: TUMOR, Dose [Carcinogen]: 200 NMOL IN 200 µL ACETONE ONCE, Promoter: 12-O-TETRADECANOYLPHORBOL-13-ACETATE, 16561-29-8","87%, 77%, 11%, not significant"
same,"tumour outcome (control, treated, inhibition, significance)","Carcinogen: 7,12-DIMETHYLBENZ[A]ANTHRACENE, 57-97-6, Dose [Inhibitor]: 0, 1 UMOL IN 200 µL ACETONE 2/WK FOR 20 WK BEGINNING 1 WK POST CARCINOGEN DOSE (STUDY DURATION: 20 WK), Route [Inhibitor]: DERMAL, Species: (30,30)/(30,30), Strain/Sex: CD-1/FEMALE, Target Tissue: Type of Lesion: SKIN: TUMOR, Dose [Carcinogen]: 200 NMOL IN 200 µL ACETONE ONCE, Promoter: 12-O-TETRADECANOYLPHORBOL-13-ACETATE, 16561-29-8","93%, 80%, 14%, not significant"
same,"tumour outcome (control, treated, inhibition, significance)","Carcinogen: 7,12-DIMETHYLBENZ[A]ANTHRACENE, 57-97-6, Dose [Inhibitor]: 0, 2 UMOL IN 200 µL ACETONE 2/WK FOR 18 WK BEGINNING 1 WK POST CARCINOGEN DOSE (STUDY DURATION: 18 WK), Route [Inhibitor]: DERMAL, Species: MOUSE, Strain/Sex: CD-1/FEMALE, Target Tissue: Type of Lesion: SKIN: TUMOR, Dose [Carcinogen]: 200 NMOL IN 200 µL ACETONE ONCE, Promoter: 12-O-TETRADECANOYLPHORBOL-13-ACETATE, 16561-29-8","87%, 60%, 31%, not significant"
CCOC(=O)C(C)(C)Oc1ccc(Cl)cc1,"tumour outcome (control, treated, inhibition, significance)","Carcinogen: N-NITROSOBIS(2-HYDROXYPROPYL)AMINE, 53609-64-6, Dose [Inhibitor]: 0.25% IN DIET FOLLOWING LAST CARCINOGEN DOSE FOR 30 WK (STUDY DURATION: 35 WK), Route [Inhibitor]: ORAL, Species: HAMSTER, Strain/Sex: SYRIAN/MALE, Target Tissue: Type of Lesion: KIDNEY: RENAL CELL CARCINOMA, Dose [Carcinogen]: 500 MG/KG BW 1/WK FOR 5 WK, Promoter: NONE USED","1/17 (6%), 2/16 (13%), -117%, not calculated"
same,"tumour outcome (control, treated, inhibition, significance)","Carcinogen: N-NITROSOBIS(2-HYDROXYPROPYL)AMINE, 53609-64-6, Dose [Inhibitor]: 0.25% IN DIET FOLLOWING LAST CARCINOGEN DOSE FOR 30 WK (STUDY DURATION: 35 WK), Route [Inhibitor]: ORAL, Species: HAMSTER, Strain/Sex: SYRIAN/MALE, Target Tissue: Type of Lesion: LUNG: ADENOCARCINOMA, Dose [Carcinogen]: 500 MG/KG BW 1/WK FOR 5 WK, Promoter: NONE USED","3/17 (18%), 0/16 (0%), 100%, not calculated"
same,"tumour outcome (control, treated, inhibition, significance)","Carcinogen: N-NITROSOBIS(2-HYDROXYPROPYL)AMINE, 53609-64-6, Dose [Inhibitor]: 0.25% IN DIET FOLLOWING LAST CARCINOGEN DOSE FOR 30 WK (STUDY DURATION: 35 WK), Route [Inhibitor]: ORAL, Species: HAMSTER, Strain/Sex: SYRIAN/MALE, Target Tissue: Type of Lesion: LUNG: ADENOMA, Dose [Carcinogen]: 500 MG/KG BW 1/WK FOR 5 WK, Promoter: NONE USED","16/17 (94%), 10/16 (63%), 33%, not calculated"
same,"tumour outcome (control, treated, inhibition, significance)","Carcinogen: N-NITROSOBIS(2-HYDROXYPROPYL)AMINE, 53609-64-6, Dose [Inhibitor]: 0.25% IN DIET FOLLOWING LAST CARCINOGEN DOSE FOR 30 WK (STUDY DURATION: 35 WK), Route [Inhibitor]: ORAL, Species: HAMSTER, Strain/Sex: SYRIAN/MALE, Target Tissue: Type of Lesion: PANCREAS: ADENOCARCINOMA, Dose [Carcinogen]: 500 MG/KG BW 1/WK FOR 5 WK, Promoter: NONE USED","8/17 (47%), 3/16 (19%), 60%, not calculated"
same,"tumour outcome (control, treated, inhibition, significance)","Carcinogen: N-NITROSOBIS(2-HYDROXYPROPYL)AMINE, 53609-64-6, Dose [Inhibitor]: 0.25% IN DIET FOLLOWING LAST CARCINOGEN DOSE FOR 30 WK (STUDY DURATION: 35 WK), Route [Inhibitor]: ORAL, Species: HAMSTER, Strain/Sex: SYRIAN/MALE, Target Tissue: Type of Lesion: PANCREAS: ADENOMA, Dose [Carcinogen]: 500 MG/KG BW 1/WK FOR 5 WK, Promoter: NONE USED","5/17 (29%), 4/16 (25%), 14%, not calculated"
same,"tumour outcome (control, treated, inhibition, significance)","Carcinogen: N-NITROSOBIS(2-HYDROXYPROPYL)AMINE, 53609-64-6, Dose [Inhibitor]: 0.5% IN DIET FOLLOWING LAST CARCINOGEN DOSE FOR 30 WK (STUDY DURATION: 35 WK), Route [Inhibitor]: ORAL, Species: HAMSTER, Strain/Sex: SYRIAN/MALE, Target Tissue: Type of Lesion: KIDNEY: RENAL CELL CARCINOMA, Dose [Carcinogen]: 500 MG/KG BW 1/WK FOR 5 WK, Promoter: NONE USED","1/17 (6%), 3/17 (18%), -200%, not calculated"
same,"tumour outcome (control, treated, inhibition, significance)","Carcinogen: N-NITROSOBIS(2-HYDROXYPROPYL)AMINE, 53609-64-6, Dose [Inhibitor]: 0.5% IN DIET FOLLOWING LAST CARCINOGEN DOSE FOR 30 WK (STUDY DURATION: 35 WK), Route [Inhibitor]: ORAL, Species: HAMSTER, Strain/Sex: SYRIAN/MALE, Target Tissue: Type of Lesion: LUNG: ADENOCARCINOMA, Dose [Carcinogen]: 500 MG/KG BW 1/WK FOR 5 WK, Promoter: NONE USED","3/17 (18%), 2/17 (12%), 33%, not calculated"
same,"tumour outcome (control, treated, inhibition, significance)","Carcinogen: N-NITROSOBIS(2-HYDROXYPROPYL)AMINE, 53609-64-6, Dose [Inhibitor]: 0.5% IN DIET FOLLOWING LAST CARCINOGEN DOSE FOR 30 WK (STUDY DURATION: 35 WK), Route [Inhibitor]: ORAL, Species: HAMSTER, Strain/Sex: SYRIAN/MALE, Target Tissue: Type of Lesion: LUNG: ADENOMA, Dose [Carcinogen]: 500 MG/KG BW 1/WK FOR 5 WK, Promoter: NONE USED","16/17 (94%), 9/17 (53%), 44%, p<0.05"
same,"tumour outcome (control, treated, inhibition, significance)","Carcinogen: N-NITROSOBIS(2-HYDROXYPROPYL)AMINE, 53609-64-6, Dose [Inhibitor]: 0.5% IN DIET FOLLOWING LAST CARCINOGEN DOSE FOR 30 WK (STUDY DURATION: 35 WK), Route [Inhibitor]: ORAL, Species: HAMSTER, Strain/Sex: SYRIAN/MALE, Target Tissue: Type of Lesion: PANCREAS: ADENOCARCINOMA, Dose [Carcinogen]: 500 MG/KG BW 1/WK FOR 5 WK, Promoter: NONE USED","8/17 (47%), 1/17 (6%), 87%, p<0.05"
same,"tumour outcome (control, treated, inhibition, significance)","Carcinogen: N-NITROSOBIS(2-HYDROXYPROPYL)AMINE, 53609-64-6, Dose [Inhibitor]: 0.5% IN DIET FOLLOWING LAST CARCINOGEN DOSE FOR 30 WK (STUDY DURATION: 35 WK), Route [Inhibitor]: ORAL, Species: HAMSTER, Strain/Sex: SYRIAN/MALE, Target Tissue: Type of Lesion: PANCREAS: ADENOMA, Dose [Carcinogen]: 500 MG/KG BW 1/WK FOR 5 WK, Promoter: NONE USED","5/17 (29%), 2/17 (12%), 59%, not calculated"
N[C@@H]1C[C@H]1c1ccccc1,"tumour outcome (control, treated, inhibition, significance)","Carcinogen: N-METHYL-N-NITROSOUREA, 684-93-5, Dose [Inhibitor]: 10 MG/KG OF HIGH (20%) FAT DIET BEGINNING 1 WK POST CARCINOGEN DOSE AND CONTINUING FOR DURATION OF STUDY (STUDY DURATION, Route [Inhibitor]: ORAL, Species: RAT, Strain/Sex: SPRAGUE-DAWLEY/FEMALE, Target Tissue: Type of Lesion: MAMMARY GLAND: TUMOR, Dose [Carcinogen]: 40 MG/KG ONCE, Promoter: NONE USED","78%, 88%, -13%, not calculated"
same,"tumour outcome (control, treated, inhibition, significance)","Carcinogen: N-METHYL-N-NITROSOUREA, 684-93-5, Dose [Inhibitor]: 10 MG/KG OF LOW (3%) FAT DIET BEGINNING 1 WK POST CARCINOGEN DOSE AND CONTINUING FOR DURATION OF STUDY (STUDY DURATION:, Route [Inhibitor]: ORAL, Species: RAT, Strain/Sex: SPRAGUE-DAWLEY/FEMALE, Target Tissue: Type of Lesion: MAMMARY GLAND: TUMOR, Dose [Carcinogen]: 40 MG/KG ONCE, Promoter: NONE USED","78%, 83%, -6%, not calculated"
